Calls of active or inactive are those of the source.
Legend:
Beta-galactosidase = Beta-galactosidase (Escherichia coli, UniProt Q8VNN2); experiment: Dose response counterscreen for EBI2 assay utilizing the enzyme, b-galactosidase.; type: functional
[1] = molecular target: T1, Long-chain-fatty-acid--AMP ligase FadD28 (Mycobacterium tuberculosis, UniProt P9WQ59); experiment: Fluorescence polarization aasay to screen for inhibitors that compete for the binding of FadD28 to a bisubstrate Measured in Biochemical System Using Plate Reader - 2147-01_Inhibitor_Dose_CherryPick_Activity.; type: functional, Mycobacterium tuberculosis H37Rv
T1 sequence (P9WQ59 whole entry): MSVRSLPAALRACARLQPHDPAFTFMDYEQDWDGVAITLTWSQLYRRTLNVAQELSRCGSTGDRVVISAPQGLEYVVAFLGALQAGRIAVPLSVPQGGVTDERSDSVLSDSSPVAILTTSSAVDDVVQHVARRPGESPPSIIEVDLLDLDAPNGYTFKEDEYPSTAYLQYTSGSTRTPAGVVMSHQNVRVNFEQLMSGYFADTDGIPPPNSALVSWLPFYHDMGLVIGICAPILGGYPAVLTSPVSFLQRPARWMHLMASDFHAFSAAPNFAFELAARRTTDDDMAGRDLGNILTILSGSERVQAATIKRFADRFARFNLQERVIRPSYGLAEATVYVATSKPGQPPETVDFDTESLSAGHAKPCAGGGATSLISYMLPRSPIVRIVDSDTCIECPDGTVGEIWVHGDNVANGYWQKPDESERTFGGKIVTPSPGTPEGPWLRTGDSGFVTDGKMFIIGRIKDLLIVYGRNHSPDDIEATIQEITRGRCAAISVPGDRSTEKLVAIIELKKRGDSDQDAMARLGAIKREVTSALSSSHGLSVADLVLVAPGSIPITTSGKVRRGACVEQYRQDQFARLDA

[2] = off-target signal loss in HeLa-CEM21 co-culture – HeLa F-luc CTL cells, cherry-picked, counter-screen for HIV-1 Env fusion inhibitor project, dose response (AID 652040); type: functional, cell-based;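 also: potency for signal decrease marking cytotoxic or nonspecific inhibition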
[3] = blockers of HIV-1 ZM109 envelope-driven cell-cell fusion – HeLa effector, CEM target cells, luciferase, cherry-pick, dose response (AID 652058); type: functional, cell-based;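 also: luciferase signal from HIV-1 Env mediated cell-cell fusion of effector and target cells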
[4] = HIV-1 AD8 envelope cell-cell fusion blockers – cherry-pick, dose response (AID 652062); type: functional, cell-based;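 also: luciferase signal from cell-cell fusion driven by HIV-1 clade B AD8 Env; potency is for inhibitors of fusion seen as a drop in luminescence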
[5] = blockers of HIV-1 envelope-mediated cell-cell fusion – cherry-pick, dose response (AID 652057); type: functional, cell-based
[6] = viability loss in CEM21 cells – cell-based, CellTiter-Glo luminescence, cherry-picked, cytotoxicity control for viral fusion inhibitor project, dose response (AID 652042); type: functional;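 also: potency for signal decrease meaning cytotoxicity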
[7] = system: Streptococcus sp. 'group A'; experiment: Streptococcus pyogenes SK(-)GAS viability under kanamycin – luminescence, BacTiterGlo, confirmation, counter-screen for streptokinase expression inhibitor project, dose response (AID 1900); type: functional, organism-based
Streptococcus = experiment: GAS UMAA2166 growth inhibition – luminescence, BacTiterGlo, counter-screen for streptokinase expression inhibitor project, dose response (AID 1915); type: functional, organism-based;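 also: potency for reduction of bacterial viability or growth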
[8] = molecular target: T2, Rac GTPase-activating protein 1 (Homo sapiens, UniProt Q9H0H5); experiment: blockers of MgcRacGAP-driven Rac1 GTP hydrolysis – biochemical, ADP Hunter fluorescence, primary and confirmatory, confirmation (AID 624330); type: functional
T2 sequence (Q9H0H5 whole entry): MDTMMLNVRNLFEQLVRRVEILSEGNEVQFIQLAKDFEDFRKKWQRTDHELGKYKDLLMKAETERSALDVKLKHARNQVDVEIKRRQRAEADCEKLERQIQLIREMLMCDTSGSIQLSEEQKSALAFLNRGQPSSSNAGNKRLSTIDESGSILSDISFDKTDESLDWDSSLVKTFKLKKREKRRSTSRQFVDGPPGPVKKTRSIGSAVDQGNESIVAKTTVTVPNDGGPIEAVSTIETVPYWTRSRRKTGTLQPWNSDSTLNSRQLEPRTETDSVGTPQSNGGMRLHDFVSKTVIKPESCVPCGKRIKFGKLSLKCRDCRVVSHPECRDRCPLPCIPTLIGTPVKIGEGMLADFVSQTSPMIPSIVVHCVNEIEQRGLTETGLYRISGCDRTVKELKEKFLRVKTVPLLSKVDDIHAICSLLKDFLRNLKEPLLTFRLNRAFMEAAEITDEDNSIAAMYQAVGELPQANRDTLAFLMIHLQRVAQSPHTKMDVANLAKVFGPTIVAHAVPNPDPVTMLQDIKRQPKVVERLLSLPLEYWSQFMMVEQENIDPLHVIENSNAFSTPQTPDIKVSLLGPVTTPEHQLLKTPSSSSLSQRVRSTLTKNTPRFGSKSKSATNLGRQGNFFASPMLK

[9] = T. cruzi growth inhibition in host cells, dose response, cell-based, plate reader, dry powder, set 2 (AID 652275); type: functional
Fatty acid synthase [10] = molecular target: T3, Fatty acid synthase (Homo sapiens, UniProt P49327); experiment: inhibition of human FAS-TE enzyme activity – biochemical, kinetic fluorescence intensity, dose response (AID 624326); type: functional;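 also: rate of fluorescence rise from hydrolysis of a fluorogenic O-methyl fluorescein ester substrate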
Fatty acid synthase [11] = molecular target: T3, Fatty acid synthase; experiment: inhibition of human FAS-TE enzyme activity – biochemical, endpoint fluorescence intensity, uHTS hits, dose response (AID 624327); type: functional;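 also: fluorescence from hydrolysis of an O-methyl fluorescein acyl ester substrate by the enzyme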

Chain of Beta-galactosidase (Q8VNN2 whole entry): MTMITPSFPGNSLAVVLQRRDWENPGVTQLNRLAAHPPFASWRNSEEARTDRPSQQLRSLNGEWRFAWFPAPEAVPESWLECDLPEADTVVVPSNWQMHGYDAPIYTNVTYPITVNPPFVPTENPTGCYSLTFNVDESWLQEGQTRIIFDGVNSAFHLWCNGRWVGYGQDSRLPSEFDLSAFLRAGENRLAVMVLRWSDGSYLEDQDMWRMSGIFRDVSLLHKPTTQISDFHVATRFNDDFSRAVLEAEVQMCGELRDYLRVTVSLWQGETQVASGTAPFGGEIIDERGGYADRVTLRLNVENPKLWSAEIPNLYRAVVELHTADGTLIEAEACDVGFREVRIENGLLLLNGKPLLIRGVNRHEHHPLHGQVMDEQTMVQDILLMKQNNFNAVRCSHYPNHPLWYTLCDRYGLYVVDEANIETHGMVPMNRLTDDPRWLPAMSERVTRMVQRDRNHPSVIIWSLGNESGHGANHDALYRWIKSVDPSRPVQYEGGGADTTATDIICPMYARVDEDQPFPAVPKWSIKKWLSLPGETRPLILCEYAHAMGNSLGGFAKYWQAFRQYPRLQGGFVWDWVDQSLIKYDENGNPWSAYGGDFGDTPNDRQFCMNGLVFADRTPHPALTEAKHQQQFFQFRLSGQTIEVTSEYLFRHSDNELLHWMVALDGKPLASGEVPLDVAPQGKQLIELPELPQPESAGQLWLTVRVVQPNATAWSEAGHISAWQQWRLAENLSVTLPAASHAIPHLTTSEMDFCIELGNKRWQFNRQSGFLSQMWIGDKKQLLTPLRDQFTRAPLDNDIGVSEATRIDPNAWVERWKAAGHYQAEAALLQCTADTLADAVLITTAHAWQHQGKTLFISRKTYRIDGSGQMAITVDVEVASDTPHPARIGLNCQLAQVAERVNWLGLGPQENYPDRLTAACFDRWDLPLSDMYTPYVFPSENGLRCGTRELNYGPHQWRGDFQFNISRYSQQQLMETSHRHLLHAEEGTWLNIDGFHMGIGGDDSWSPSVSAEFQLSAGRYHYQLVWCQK
T3 sequence (P49327 whole entry): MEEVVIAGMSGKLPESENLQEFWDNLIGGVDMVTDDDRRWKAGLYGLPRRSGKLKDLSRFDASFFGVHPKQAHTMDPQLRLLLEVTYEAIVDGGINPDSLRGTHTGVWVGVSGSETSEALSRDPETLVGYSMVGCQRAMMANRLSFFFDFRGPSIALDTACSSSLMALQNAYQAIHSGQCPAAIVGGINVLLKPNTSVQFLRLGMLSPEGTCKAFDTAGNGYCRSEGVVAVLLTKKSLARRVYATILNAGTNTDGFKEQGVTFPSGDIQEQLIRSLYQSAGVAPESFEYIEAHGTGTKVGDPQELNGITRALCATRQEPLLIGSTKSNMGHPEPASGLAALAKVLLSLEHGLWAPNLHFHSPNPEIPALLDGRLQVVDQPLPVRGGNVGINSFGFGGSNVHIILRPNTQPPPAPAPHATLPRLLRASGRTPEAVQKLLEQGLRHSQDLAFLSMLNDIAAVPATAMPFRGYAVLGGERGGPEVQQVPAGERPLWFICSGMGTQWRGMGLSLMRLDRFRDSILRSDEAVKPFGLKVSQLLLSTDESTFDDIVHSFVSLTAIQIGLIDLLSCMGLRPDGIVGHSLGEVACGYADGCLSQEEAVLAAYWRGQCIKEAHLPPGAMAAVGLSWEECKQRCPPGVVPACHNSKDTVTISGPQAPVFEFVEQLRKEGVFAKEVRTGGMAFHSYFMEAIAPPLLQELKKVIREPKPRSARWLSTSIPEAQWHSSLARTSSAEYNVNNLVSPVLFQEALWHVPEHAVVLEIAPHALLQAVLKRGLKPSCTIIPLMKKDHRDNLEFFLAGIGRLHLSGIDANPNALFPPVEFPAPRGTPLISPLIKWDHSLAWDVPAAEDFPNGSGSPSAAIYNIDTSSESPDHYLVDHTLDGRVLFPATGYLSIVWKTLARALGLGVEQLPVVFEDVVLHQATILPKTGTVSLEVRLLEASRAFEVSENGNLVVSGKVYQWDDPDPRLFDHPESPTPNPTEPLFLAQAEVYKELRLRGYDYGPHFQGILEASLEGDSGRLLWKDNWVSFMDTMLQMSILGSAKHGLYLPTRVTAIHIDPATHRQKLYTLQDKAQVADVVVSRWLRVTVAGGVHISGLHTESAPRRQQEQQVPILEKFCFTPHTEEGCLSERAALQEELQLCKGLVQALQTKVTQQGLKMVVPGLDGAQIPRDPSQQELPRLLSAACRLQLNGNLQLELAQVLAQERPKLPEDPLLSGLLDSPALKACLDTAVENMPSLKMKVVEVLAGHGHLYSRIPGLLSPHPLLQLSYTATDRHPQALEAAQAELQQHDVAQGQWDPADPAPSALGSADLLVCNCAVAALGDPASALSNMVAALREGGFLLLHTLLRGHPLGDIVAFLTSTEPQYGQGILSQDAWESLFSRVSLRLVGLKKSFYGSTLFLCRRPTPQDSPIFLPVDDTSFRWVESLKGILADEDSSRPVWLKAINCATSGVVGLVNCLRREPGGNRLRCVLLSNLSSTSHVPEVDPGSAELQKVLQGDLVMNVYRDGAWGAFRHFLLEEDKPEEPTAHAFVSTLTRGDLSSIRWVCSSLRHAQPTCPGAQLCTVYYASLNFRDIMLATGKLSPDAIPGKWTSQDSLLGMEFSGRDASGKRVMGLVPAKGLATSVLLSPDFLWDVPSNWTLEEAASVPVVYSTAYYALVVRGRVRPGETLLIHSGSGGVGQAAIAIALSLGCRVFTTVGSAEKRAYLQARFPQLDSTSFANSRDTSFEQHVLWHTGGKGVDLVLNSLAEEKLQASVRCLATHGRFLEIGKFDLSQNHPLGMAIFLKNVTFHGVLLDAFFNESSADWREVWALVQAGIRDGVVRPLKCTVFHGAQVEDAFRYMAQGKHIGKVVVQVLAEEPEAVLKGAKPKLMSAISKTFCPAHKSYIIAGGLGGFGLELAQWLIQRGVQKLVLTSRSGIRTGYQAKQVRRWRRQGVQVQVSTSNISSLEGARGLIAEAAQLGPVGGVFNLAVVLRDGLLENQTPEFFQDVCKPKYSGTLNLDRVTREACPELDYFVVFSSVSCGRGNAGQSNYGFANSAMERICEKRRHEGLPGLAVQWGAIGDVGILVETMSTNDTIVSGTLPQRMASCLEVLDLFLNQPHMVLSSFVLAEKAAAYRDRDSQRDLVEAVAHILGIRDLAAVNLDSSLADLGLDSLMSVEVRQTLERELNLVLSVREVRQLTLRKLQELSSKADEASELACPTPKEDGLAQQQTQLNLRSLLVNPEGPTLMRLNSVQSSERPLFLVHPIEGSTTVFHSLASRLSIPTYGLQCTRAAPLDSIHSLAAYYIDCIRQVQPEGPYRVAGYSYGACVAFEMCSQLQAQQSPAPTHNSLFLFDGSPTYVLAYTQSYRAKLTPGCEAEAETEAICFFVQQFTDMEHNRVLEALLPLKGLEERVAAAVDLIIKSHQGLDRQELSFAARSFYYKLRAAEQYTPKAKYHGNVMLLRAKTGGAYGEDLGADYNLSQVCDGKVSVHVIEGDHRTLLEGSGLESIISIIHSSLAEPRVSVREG

For `Cc1ccc(NN=C(S)Nc2ccc(C(C)C)cc2)c(C)c1`, the IC50 (Beta-galactosidase) was 66.1 µM (inactive).
For `O=C(CN1C(=O)NC2(CCOc3ccccc32)C1=O)c1ccc(Br)cc1` (centres undefined), the AC50 [1] was 98.9 µM (active).
With `Cc1ccc2oc(=O)c3cnn(CC(=O)N(Cc4ccco4)C4CCCCC4)c3c2c1` the IC50 (Beta-galactosidase) was > 80 µM (inactive).
For `O=C(Nc1cccc(F)c1)c1cc(S(=O)(=O)N2CCC(C(=O)O)CC2)ccc1F`, the AC50 [2] was 28.9 µM (active).
In the case of `O=C(CN(Cc1ccccc1F)S(=O)(=O)c1ccc(Cl)cc1)NCCC1=CCCCC1`, the AC50 [3] is reported as 4.59 µM (active), the AC50 [4] is reported as 25.6 µM (active) and the AC50 [2] is reported as 6.77 µM (active). The AC50 [5] was 4.11 µM (active).
For `Cc1onc(-c2ccccc2)c1C(=O)NC(=S)NNC(=O)c1ccc(O)cc1`, the AC50 [6] was 67.3 µM (active), the EC50 [7] was 0.547 µM (active) and the AC50 [4] was 10.5 µM (active). The EC50 (Streptococcus) was 9.46 µM (active).
With `Cc1ccc(OCC(=O)N2CCN(Cc3ccc([N+](=O)[O-])cc3)CC2)cc1` the IC50 [8] was 163 µM (active) and the IC50 (Beta-galactosidase) was > 80 µM (inactive).
For `COc1cc(/C=C2\C(=O)NN(c3ccc(C)cc3)C2=O)cc([N+](=O)[O-])c1O`, the AC50 [1] was 86.9 µM (active).
For `CCOC(=O)[C@]12CCC=C1N(Cc1ccc3c(c1)OCO3)C(=O)[C@H](CC(=O)NCC13CC4CC(CC(C4)C1)C3)C2`, the AC50 [6] was 34 µM (active), the AC50 [3] was 22.7 µM (active) and the AC50 [5] was 16.5 µM (active).
For `C[C@H]1CN([C@@H](C)CO)C(=O)c2cccc(NC(=O)c3ccncc3)c2O[C@@H]1CN(C)Cc1ccc(Cl)cc1`, the AC50 [9] was 0.00712 µM (active).
For `CC(C)(C)[S+]([O-])N1Cc2cc(C(=O)NCc3ccc4c(c3)OCO4)nc(-c3cccc(C#CCC4CCCC4)c3)c2[C@H]1CCO` (some centres undefined), the AC50 [9] was 1.01 µM (active).
With `CC(C)(C)[S@+]([O-])N1Cc2cc(C(=O)NCc3ccc4c(c3)OCO4)nc(-c3cccc(-c4ccncc4)c3)c2[C@@H]1CCO` the AC50 [9] was 0.152 µM (active).
For `CC1=C(O)C(=O)C(c2c(C)cc(C)c(Br)c2C)=C(O)C1=O`, the IC50 (Fatty acid synthase [10]) was 9.46 µM (active), the IC50 (Fatty acid synthase [11]) was 10.8 µM (active) and the AC50 [1] was 51.8 µM (active).
